Results as given in PubChem BioAssay AID1259411 (Chemical Carcinogenesis Research Information System (CCRIS), 2018).
Activity calls are given as the source filed them. How the calls were made is not given here.

System: rodent carcinogenicity bioassays, tumor incidence
Experiment: CCRIS carcinogenicity studies
Conditions: Dose: 0, Dose: 0
Outline: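 Archive of carcinogenicity, mutagenicity, tumor promotion and tumor inhibition results drawn from journals, NCI reports and other sources, expert-reviewed; covers 1985-2011 and is no longer updated.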

Measured: carcinogen call

CN1CSC(=S)N(C)C1
inactive: Species: Mouse, Strain/Sex: B6C3F1/Female (50/Group), Route: Oral, 6, 22, 93 mg/kg in diet for 78 wk, study duration 78 wk, 6, 22, 93 mg/kg in diet for 78 wk, study duration 78 wk inactive; negative | Species: Mouse, Strain/Sex: B6C3F1/Male (50/Group), Route: Oral, 4, 16, 68 mg/kg in diet for 78 wk, study duration 78 wk, 4, 16, 68 mg/kg in diet for 78 wk, study duration 78 wk inactive; negative | Species: Rat, Strain/Sex: Wistar/Female (50/Group), Route: Oral, 0.35, 1.37, 5.66 mg/kg in diet for 2 yr, study duration 2 yr inactive; negative | Species: Rat, Strain/Sex: Wistar/Male (50/Group), Route: Oral, 0.27, 1.08, 4.43 mg/kg in diet for 2 yr, study duration 2 yr inactive; negative

CC1=C(C(=O)OCCN(Cc2ccccc2)c2ccccc2)C(c2cccc([N+](=O)[O-])c2)C(P2(=O)OCC(C)(C)CO2)=C(C)N1 (stereo not drawn)
inactive: Species: MOUSE, Strain/Sex: B6C3F1/FEMALE, Route: ORAL, 500, 1600, 5000 PPM IN FEED FOR 104 WK (STUDY DURATION: 104 WK), 500, 1600, 5000 PPM IN FEED FOR 104 WK (STUDY DURATION: 104 WK) inactive; negative | Species: MOUSE, Strain/Sex: B6C3F1/MALE, Route: ORAL, 500, 1600, 5000 PPM IN FEED FOR 104 WK (STUDY DURATION: 104 WK), 500, 1600, 5000 PPM IN FEED FOR 104 WK (STUDY DURATION: 104 WK) inactive; negative | Species: RAT, Strain/Sex: F344/FEMALE, Route: ORAL, 400, 1200, 3600 PPM IN FEED FOR 104 WK (STUDY DURATION: 104 WK), 400, 1200, 3600 PPM IN FEED FOR 104 WK (STUDY DURATION: 104 WK) inactive; negative | Species: RAT, Strain/Sex: F344/MALE, Route: ORAL, 400, 1200, 3600 PPM IN FEED FOR 104 WK (STUDY DURATION: 104 WK), 400, 1200, 3600 PPM IN FEED FOR 104 WK (STUDY DURATION: 104 WK) inactive; negative
